Source: US8227510B2, “Combine use of pterostilbene and quercetin for the production of cancer treatment medicaments” (Universitat de Valencia, priority 2004, dated 2012)
Marks after values point to notes of the source that are not given here.

Assays:
B16M-F10/Tet-Bcl-2 cells = test: In vivo microscopy: B16M-F10/Tet-Bcl-2 cells adhering to the HSE and intact cells; design: species or system mice; settings: for Intact cells: B16M-F10/Tet-Bcl-2, 6 hours postinjection, none 85 ± 13; for Number of cells adhering to the HSE: B16M-F10/Tet-Bcl-2 precultured with polyphenols, 60 minutes postinjection, none 42 ± 6
Experimental: (§1) Hepatic metastases were induced by i.v. inoculations (portal vein), in anesthetized mice (Nembutal, 50 mg/kg i.p.), of 4×10^5 viable B16M-F10 cells suspended in 0.2 ml of DMEM. The mice were sacrificed by cervical dislocation 10 days after inoculation. The livers were fixed by immersion for 24 hours at 22° C. in 10% formaldehyde in PBS (pH 7.4), and were subsequently embedded in paraffin. The density of metastases (average number of foci/100 mm^3 of liver detected in fifteen sections of 10×10 mm^2 per liver) and the volume of metastases (average percentage of liver volume occupied by metastases) were determined as described previously (22).
(§2) This methodology makes it possible for the effect of PTER and QUER to be studied in vivo. For this purpose, mice were inoculated with B16M-F10 control cells or B16M-F10/Tet-Bcl-2 which overexpressed Bcl-2. Both subgroups of cells were cultivated beforehand in the absence or in the presence of t-PTER and QUER. B16M-F10 cells were cultivated for 72 hours. t-RESV (12 μM), t-PTER (40 μM), and QUER (20 μM) were added at 6, 30 and 54 hours of culture time, and were present in each case for just 60 minutes. Then they were removed from the culture flasks by washing (3 times with PBS) and the medium was renewed. The levels of Bcl-2 in the B16M-F10 control cells and cells treated with Tet-Bcl-2 were 24±5 and 105±14 units/mg of protein, respectively (n=5 in each case, P<0.01). The number of adhering cells shown in the table was calculated at 60 minutes postinjection (no significant differences were found when the measurements were effected at 30, 120, 180, 240 or 360 minutes postinjection, data not shown). The number of intact cells was calculated at 6 hours postinjection. The experimental microscopy data in vivo are mean values±SD corresponding to 4-5 different experiments. The growth of metastases in the liver was evaluated as stated in the corresponding section of the description, and in this case the mice were treated daily (×10 days) with t-PTER and/or QUER (20 mg/kg of body weight) administered i.v. (the data are mean values±SD corresponding to 25 mice per group). A similar method and equal number of mice per group were used for evaluating the survival of the carrier animals. The test of significance relates, in all the groups, to comparison between cases with PTER and/or QUER and cases without additions (*P<0.05 and **P<0.01), and to comparison between the B16M-F10/Tet-Bcl-2 cells with the B16M-F10 control cells (^+P<0.05, ^++P<0.01). […] This is the first time that the combined administration in vivo of natural polyphenols has induced inhibition of metastatic growth of a highly malignant tumor and an increase in the survival of the carrier.

B16M-F10/Tet-Bcl-2 [1] = test: Growth of hepatic metastases of B16M-F10/Tet-Bcl-2 in mice; format: in vivo; settings: 20 mg/kg i.v. daily x10 days; for Volume of metastases: none 25 ± 6; for Density of metastases: none 29 ± 5
Experimental: as §1, §2

B16M-F10/Tet-Bcl-2 [2] = test: Survival of mice carrying B16M-F10/Tet-Bcl-2 metastases; format: in vivo; settings: 20 mg/kg i.v. daily, none 12 ± 1
Experimental: as §1
This methodology makes it possible for the effect of PTER and QUER to be studied in vivo. […] The number of adhering cells shown in the table was calculated at 60 minutes postinjection (no significant differences were found when the measurements were effected at 30, 120, 180, 240 or 360 minutes postinjection, data not shown). The number of intact cells was calculated at 6 hours postinjection. […] The growth of metastases in the liver was evaluated as stated in the corresponding section of the description, and in this case the mice were treated daily (×10 days) with t-PTER and/or QUER (20 mg/kg of body weight) administered i.v. (the data are mean values±SD corresponding to 25 mice per group). […]

[3] = rabbits, i.v., cited from earlier work
B16M-F10 cells / HSE [4] = settings: as described previously (ref. 14); cited from earlier work
B16M-F10 cells / HSE [5] = settings: as described previously (ref. 14); cited from earlier work; remark: listed apart in the source
VCAM-1 = settings: cited from earlier work

| Structure (SMILES) | Intact cells (B16M-F10/Tet-Bcl-2 cells) | Number of cells adhering to the HSE (B16M-F10/Tet-Bcl-2 cells) | Volume of metastases (B16M-F10/Tet-Bcl-2 [1]) | Density of metastases (B16M-F10/Tet-Bcl-2 [1]) | Survival of the carrier (B16M-F10/Tet-Bcl-2 [2]) | highest concentration in plasma ([3]; 5 minutes after administration) | time in which plasma concentration falls to ~1 μM [3] | inhibition of adhesion of tumor cells to the endothelium (B16M-F10 cells / HSE [4]) | effect on HSE-induced cytotoxicity on the metastatic cells (B16M-F10 cells / HSE [5]) | concentration at which expression of VCAM-1 is inhibited (VCAM-1) |
| --- | --- | --- | --- | --- | --- | --- | --- | --- | --- | --- |
| O=c1c(O)c(-c2ccc(O)c(O)c2)oc2cc(O)cc(O)c12 [QUER, quercetin] | 87 ± 13^++ percentage of cells adhering t | 40 ± 7 average number per lobe | 24 ± 5^++ percentage of liver volume | 26 ± 516^++ number of foci/100 mm^3 | 13 ± 2 days | ~43 µM | 60 min |  |  |  |
| Oc1ccc(C=Cc2cc(O)cc(O)c2)cc1 [RESV, resveratrol, reference compound] |  |  |  |  |  |  |  | ~47% | without increasing the HSE-induced cytotoxicity | 1 µM |
| COc1cc(/C=C/c2ccc(O)cc2)cc(OC)c1 [PTER, pterostilbene] | 91 ± 20 percentage of cells adhering t | 21 ± 4** average number per lobe | 15 ± 3** percentage of liver volume | 15 ± 3** number of foci/100 mm^3 | 12 ± 2 days |  |  |  |  |  |
